The record followed here is patent US9550767B2, “Crystalline form of (R)-7-chloro-N-(quinuclidin-3-yl)benzo[b]thiophene-2-carboxamide hydrochloride monohydrate” (Forum Pharmaceuticals, Inc., priority 2010, dated 2017).

Format in all cases: physicochemical
A short description of series [1]: Transformation behavior in 98 v/v % aqueous acetonitrile (seeded slurry, XRPD). How it is done:
Form I crystals and 40 v/w times volume of 98 v/v % aqueous acetonitrile were added to a glass vessel. The mixture was stirred with Teflon-coated magnetic stirrer bar and heated to 80° C. with aluminum block. After dissolved, solution was cooled to 5° C. at the rate of 30° C. per hour. To the slurry of Form X, 10 w/w % of Form I crystals were added as seed crystals at 5° C., then controlled to a certain temperature. Samples of solid material were analyzed by XRPD on a periodic basis.

The nature of series [2]: Solubility measurements of Forms I and II in aqueous acetonitrile (HPLC, equilibrium plateau). Particulars: for solubility: aqueous acetonitrile; for Thermodynamic relationship between forms I and II crystals: based on solubility measurements in aqueous acetonitrile. How it is done:
Solubility of Forms I and II was measured at various temperatures between 5° C. and 45° C. in aqueous acetonitrile in which water concentration was from 0 to 10 v/v % respectively.
Solubility was measured according to the following procedure. Form I or II crystals and an aqueous acetonitrile were added to a glass vessel. The mixture was stirred with a Teflon-coated magnetic stirrer bar at a defined temperature controlled with aluminum block. The liquid phase was sampled periodically, and the concentration of the compound was measured with high performance liquid chromatography (HPLC). Solid material was also collected at the same time to identify the crystal form using XRPD. In analyzing the time course of the change in concentration, that plateau zone was identified as an equilibrium condition, and the mean value of these concentrations was defined as “solubility” under that condition.

Series [3] is described as follows: Stability under physical stress (compression with planar pestle, XRD). Conditions: 1000 kgf/cm^2. From the text: (§1) The crystalline Forms I and II are very stable in many aspects. Both forms are stable under storage conditions. […] Both forms are also stable under physical stress. The XRD charts of both forms were not changed after compression experiments with a planar pestle (1000 kgf/cm^2).

Series [4] is described as follows: Solubility in water (shaking 20 minutes, HPLC UV 210 nm). Particulars: for solubility at 20 min: thermodynamic from solid; for Solubility in water: hydrochloride monohydrate. How it is done:
Excess amount of the samples, Forms I and II, were suspended in water, and were equilibrated by shaking for 20 minutes at 25° C. or 37° C., respectively. The amounts of dissolved the compound were determined using a Waters alliance HPLC system 2695, detected by UV 210 nm.

Another series is described as follows: Hygroscopicity (DVS-1). Conditions: between 10% RH and 90% RH at 25° C.; for Hygroscopicity: hydrochloride monohydrate. How it is done: The hygroscopicity of Forms I and II were investigated using a Surface measurement systems, DVS-1, between 10% RH and 90% RH at 25° C.
A short description of series [5]: Stability under photo storage conditions. Conditions: light (D65 lamp) of 1.2 million Lux hours at 25° C.
Source text: as §1

A short description of series [6]: Transformation behavior in 97 v/v % aqueous acetonitrile (XRPD). How it is done:
Form X crystals and 97 v/v % aqueous acetonitrile were added to a glass vessel. The mixture was stirred with Teflon-coated magnetic stirrer bar at the temperature controlled with aluminum block. Solid component was sampled periodically and analyzed by XRPD to determine the crystal form.

Series [7] can be described thus: Stability under storage conditions (temperature/humidity). Particulars: 11% RH at 40° C., 75% RH at 40° C., 11% RH at 60° C. and 75% RH at 60° C. after 2 weeks.
Source text: as §1

The nature of series [8]: Crystallization behavior in 98 v/v % aqueous acetonitrile (XRPD). Conditions: seeded experiments. On the procedure: Form I crystals were added to 98 v/v % aqueous acetonitrile in a glass vessel. Next, 98 v/v % aqueous acetonitrile was added to make the mixture 40 v/w times relative to the Form I crystal. The mixture was stirred with Teflon-coated magnetic stirrer bar and heated to 80° C. with aluminum block. After the crystals were dissolved, the mixture was cooled to a determined temperature at the rate of 30° C. per hour. After a determined holding time, Form I crystals were added as seed crystals according to object of an experiment. Precipitates were sampled periodically and analyzed by XRPD.

Counter-ions that a name gives are not always drawn. Like-named read-outs stand apart in the source and are kept apart here.

For `O=C(N[C@H]1CN2CCC1CC2)c1cc2cccc(Cl)c2s1` [Form I, (R)-7-chloro-N-(quinuclidin-3-yl)benzo[b]thiophene-2-carboxamide hydrochloride monohydrate], the “Relative stability of Form I versus Form X” value in series [1], in series [6] and in [8] was “more stable than Form X regardless of temperature” throughout. Besides, the solubility in series [2] (5 °C, organic solvent or mixture, thermodynamic from solid, water concentration 0 v/v %, 5 °C, read-out: Solubility) amounted to 1 mg/mL; in series [2] (5 °C, organic solvent or mixture, thermodynamic from solid, water concentration 2 v/v %, 5 °C, read-out: Solubility), 2.4 mg/mL; in series [2] (5 °C, organic solvent or mixture, thermodynamic from solid, water concentration 6 v/v %, 5 °C, read-out: Solubility), 12.8 mg/mL; in [2] (12.5 °C, organic solvent or mixture, thermodynamic from solid, water concentration 3.5 v/v %, 12.5 °C, read-out: Solubility), 5.4 mg/mL; in series [2] (12.5 °C, organic solvent or mixture, thermodynamic from solid, water concentration 8.5 v/v %, 12.5 °C, read-out: Solubility), 27.6 mg/mL; in series [2] (25 °C, organic solvent or mixture, thermodynamic from solid, water concentration 0 v/v %, 25 °C, read-out: Solubility) it was 1.3 mg/mL. The solubility stood at 4.1 mg/mL in series [2] (25 °C, organic solvent or mixture, thermodynamic from solid, water concentration 2 v/v %, 25 °C, read-out: Solubility); 17.1 mg/mL in series [2] (25 °C, organic solvent or mixture, thermodynamic from solid, water concentration 6 v/v %, 25 °C, read-out: Solubility); 47.5 mg/mL in series [2] (25 °C, organic solvent or mixture, thermodynamic from solid, water concentration 10 v/v %, 25 °C, read-out: Solubility); 10 mg/mL in series [2] (37.5 °C, organic solvent or mixture, thermodynamic from solid, water concentration 3.5 v/v %, 37.5 °C, read-out: Solubility); 44.4 mg/mL in [2] (37.5 °C, organic solvent or mixture, thermodynamic from solid, water concentration 8.5 v/v %, 37.5 °C, read-out: Solubility); 8.7 mg/mL in [2] (45 °C, organic solvent or mixture, thermodynamic from solid, water concentration 2 v/v %, 45 °C, read-out: Solubility). Further, the solubility in [2] (45 °C, organic solvent or mixture, thermodynamic from solid, water concentration 6 v/v %, 45 °C, read-out: Solubility) is 27.2 mg/mL; in [2] (45 °C, organic solvent or mixture, thermodynamic from solid, water concentration 10 v/v %, 45 °C, read-out: Solubility) it was 71.6 mg/mL. Further, the “Thermodynamic relationship between forms I and II crystals” value in [2] is listed as “enantiotropy”. Moreover, the “XRD chart after compression” value in [3] is listed as “not changed”. For the same molecule, the solubility at 20 min in series [4] (25 °C) was determined as 39 mg/mL; in [4] (37 °C), 90 mg/mL. In addition, in the series “Hygroscopicity (DVS-1)”, the Hygroscopicity result was “no hygroscopicity”. In addition, in series [5], the “Degradation products under photo storage conditions” value is on record as “no degradation products”. Also, the “Degradation products under storage conditions” value in [7] is listed as “No degradation products”.

On to `O=C(N[C@H]1CN2CCC1CC2)c1cc2cccc(Cl)c2s1` [Form II, (R)-7-chloro-N-(quinuclidin-3-yl)benzo[b]thiophene-2-carboxamide hydrochloride monohydrate], for which the solubility in [2] (5 °C, organic solvent or mixture, thermodynamic from solid, water concentration 10 v/v %, 5 °C, read-out: Solubility) amounted to 29.7 mg/mL; in series [2] (water concentration 2 v/v %, 5 °C, hydrochloride monohydrate) it was 2.6; in [2] (water concentration 2 v/v %, 25 °C, hydrochloride monohydrate), 4.7; in series [2] (water concentration 3.5 v/v %, 12.5 °C, hydrochloride monohydrate) it was 5.7; in series [2] (water concentration 6 v/v %, 5 °C, hydrochloride monohydrate) it was 11.2; in series [2] (water concentration 6 v/v %, 25 °C, hydrochloride monohydrate), 16.7. Besides, the solubility in [2] (water concentration 6 v/v %, 45 °C, hydrochloride monohydrate) turned out to be 29.6; in series [2] (water concentration 8.5 v/v %, 12.5 °C, hydrochloride monohydrate) it was 25.1; in series [2] (water concentration 8.5 v/v %, 37.5 °C) it was 44.4; in [2] (water concentration 10 v/v %, 25 °C, hydrochloride monohydrate), 44.6; in series [2] (water concentration 10 v/v %, 45 °C, hydrochloride monohydrate), 74.5. Besides, in series [2], the “Thermodynamic relationship between forms I and II crystals” value is “enantiotropy”. Also, the “XRD chart after compression” value in [3] was “not changed”. For the same molecule, the Solubility in water is recorded as 30 mg/mL in series [4] (25° C.) and 54 mg/mL in series [4] (37° C.). In addition, in “Hygroscopicity (DVS-1)”, the “Channel water absorbed and desorbed” value is “ca. 1 mol”. Moreover, the “Water value increased and decreased by absorption and desorption” value in the series “Hygroscopicity (DVS-1)” is on record as “approximately 4%”. The Hygroscopicity entry in the series “Hygroscopicity (DVS-1)” is recorded as “there was a hygroscopicity”. Also, the “Degradation products under photo storage conditions” value in [5] was “no degradation products”. The “Degradation products under storage conditions” value in series [7] is reported as “No degradation products”.
